According to ChEMBL document CHEMBL3832761, “MMV Pathogen Box Bioactivity Data” (2017):
≈ marks a conversion by molar mass, not a printed value.

Legend:
[1] = system: HepG2; experiment: Cytotoxicity data HepG2 CC20 (uM); assay type: functional
[2] = HL60 CC50 (uM) Cytotoxicity; assay type: functional; settings: HL-60
[3] = system: Plasmodium falciparum; experiment: Antimalarial activity: Asexual Blood Stage Plasmodium falciparum 3D7 IC50 (uM); assay type: functional, organism-based
[4] = system: Plasmodium falciparum; experiment: Antimalarial activity: Asexual Blood Stage Plasmodium falciparum Dd2 IC50 (uM); assay type: functional, organism-based
[5] = system: Plasmodium berghei; experiment: Antimalarial activity: Liver Stage Plasmodium berghei sporozoite Luciferase assay: inhibition at 10 uM (%); assay type: functional
[6] = system: Plasmodium falciparum; experiment: Antimalarial activity: Gametocytes Plasmodium falciparum NF54 Gametocytes Stage V: inhibition at 10 uM (%); assay type: functional
[7] = system: Plasmodium falciparum; experiment: Antimalarial activity: Asexual Blood Stage Plasmodium falciparum W2 IC50 (uM); assay type: functional, organism-based
[8] = system: HepG2; experiment: HepG2 inhibition at 10 uM (%) Cytotoxicity; assay type: functional; settings: Homo sapiens
[9] = system: Mycobacterium tuberculosis; experiment: AntiMycobacterium tuberculosis activity 1-week 7H9/ADC/Tw MIC (uM); assay type: functional; settings: 168 h
[10] = system: Mycobacterium tuberculosis; experiment: (§1) AntiMycobacterium tuberculosis activity day 10 in 7H9/2.5mM butyrate/pH6/0.1mM nitrite MIC90 (uM); assay type: functional; settings: 240 h
[11] = system: Mycobacterium tuberculosis; experiment: AntiMycobacterium tuberculosis activity 1-week 7H9/glucose/BSA/Tx MIC (uM); assay type: functional; settings: 168 h
[12] = system: Mycobacterium tuberculosis; experiment: as §1; assay type: functional; settings: 240 h; remark: listed apart in the source
[13] = system: Mycobacterium tuberculosis; experiment: AntiMycobacterium tuberculosis activity day 21 in 7H9/2.5mM butyrate/pH6/0.1mM nitrite MIC90 (uM); assay type: functional; settings: 504 h
[14] = system: Mycobacterium tuberculosis; experiment: AntiMycobacterium tuberculosis activity 2-week 7H9/DPPC/cholesterol/BSA/Tx MIC (uM); assay type: functional; settings: 336 h
[15] = system: Mycobacterium tuberculosis; experiment: AntiMycobacterium tuberculosis activity 2-week GAST/Fe MIC (uM); assay type: functional; settings: 336 h
[16] = system: Mycobacterium tuberculosis; experiment: AntiMycobacterium tuberculosis activity 2-week Alamar Blue 7H9/cholesterol/BSA/Tx MIC (uM); assay type: functional; settings: 336 h
[17] = system: Mycobacterium tuberculosis; experiment: AntiMycobacterium tuberculosis activity 2-week 7H9/ADC/Tw MIC (uM); assay type: functional; settings: 336 h
[18] = system: Mycobacterium tuberculosis; experiment: AntiMycobacterium tuberculosis activity 1-week GAST/Fe MIC (uM); assay type: functional; settings: 168 h
[19] = system: Mycobacterium tuberculosis; experiment: AntiMycobacterium tuberculosis activity 1-week 7H9/cholesterol/BSA/Tx MIC (uM); assay type: functional; settings: 168 h
[20] = system: Mycobacterium tuberculosis; experiment: AntiMycobacterium tuberculosis activity 1-week 7H9/DPPC/cholesterol/BSA/Tx MIC (uM); assay type: functional; settings: 168 h
[21] = system: Mycobacterium tuberculosis; experiment: AntiMycobacterium tuberculosis activity 2-week Alamar Blue 7H9/ADC/Tw MIC (uM); assay type: functional; settings: 336 h
[22] = system: Mycobacterium tuberculosis; experiment: AntiMycobacterium tuberculosis activity day 21 MIC99 in 7H9/2.5mM butyrate/pH6/0.1mM nitrite MIC99 (uM); assay type: functional; settings: 504 h
[23] = system: HepG2; experiment: HepG2 galactose CC50 (uM) Cytotoxicity; assay type: functional
[24] = system: Mycobacterium tuberculosis; experiment: AntiMycobacterium tuberculosis activity 2-week 7H9/glucose/BSA/Tx MIC (uM); assay type: functional; settings: 336 h
[25] = system: HepG2; experiment: HepG2 glucose CC50 (uM) Cytotoxicity; assay type: functional

Compound | CC20 [1] | CC50 [2] | IC50 [3] | IC50 [4] | Inhibition [5] | Inhibition [6] | inhibition at 10 µM [8] | MIC [9] | MIC90 [10] | MIC [11] | MIC90 [12] | MIC90 [13] | MIC [14] | MIC [15] | MIC [16] | MIC [17] | MIC [18] | MIC [19] | MIC [20] | MIC [21] | further results
CS(=O)(=O)c1cccc(-c2cnc3[nH]cc(-c4ccc(CCC(=O)O)cc4)c3c2)c1 | >80 µM | > 50 µM | 0.5 µM | 0.68 µM | 47% | 38% | 16% |  |  |  |  |  |  |  |  |  |  |  |  |  | IC50 [7]: 0.91 µM
O=[N+]([O-])c1cn2c(n1)OC[C@@H](OCc1ccc(OC(F)(F)F)cc1)C2 [PRETOMANID] |  |  |  |  |  |  |  | 0.39 µM (≈ 0.14 µg/mL) | 0.78 µM (≈ 0.28 µg/mL) | 0.39 µM (≈ 0.14 µg/mL) | 0.39 µM (≈ 0.14 µg/mL) | 0.78 µM (≈ 0.28 µg/mL) | 0.2 µM (≈ 0.0719 µg/mL) | 0.15 µM (≈ 0.0539 µg/mL) | 0.3 µM (≈ 0.108 µg/mL) | 0.39 µM (≈ 0.14 µg/mL) | 0.2 µM (≈ 0.0719 µg/mL) | 0.1 µM (≈ 0.0359 µg/mL) | 0.2 µM (≈ 0.0719 µg/mL) | 0.39 µM (≈ 0.14 µg/mL) | MIC [22]: 3.1 µM (≈ 1.11 µg/mL); CC50 ([23]; Homo sapiens, HepG2): > 50 µM; MIC [24]: 0.6 µM (≈ 0.216 µg/mL); CC50 ([25]; Homo sapiens, HepG2): > 50 µM
CS(=O)(=O)Cc1nc2ccccc2oc1=O |  |  |  |  |  |  |  | 19 µM (≈ 4.55 µg/mL) | 12.5 µM (≈ 2.99 µg/mL) | 9.4 µM (≈ 2.25 µg/mL) | 3.12 µM (≈ 0.746 µg/mL) | 3.12 µM (≈ 0.746 µg/mL) | 6.25 µM (≈ 1.5 µg/mL) | 1.56 µM (≈ 0.373 µg/mL) | 6.25 µM (≈ 1.5 µg/mL) | 9.4 µM (≈ 2.25 µg/mL) | 0.78 µM (≈ 0.187 µg/mL) | 6.25 µM (≈ 1.5 µg/mL) | 6.25 µM (≈ 1.5 µg/mL) | 6.25 µM (≈ 1.5 µg/mL) | MIC [22]: 12.5 µM (≈ 2.99 µg/mL); CC50 ([23]; Homo sapiens, HepG2): > 50 µM; MIC [24]: 9.4 µM (≈ 2.25 µg/mL); CC50 ([25]; Homo sapiens, HepG2): > 50 µM
CCCNC(=O)N1CCC2(CC1)CC(=O)c1cc(C)ccc1O2 | >80 µM | > 50 µM | 2.06 µM | 3.12 µM | 3% | 1% | 0% |  |  |  |  |  |  |  |  |  |  |  |  |  | IC50 [7]: 1.57 µM
CCOc1ccc(-c2nc(CNCCc3ccc(F)cc3)cs2)cc1 |  |  |  |  |  |  |  | 25 µM (≈ 8.91 µg/mL) | 50 µM (≈ 17.8 µg/mL) | 19 µM (≈ 6.77 µg/mL) | 25 µM (≈ 8.91 µg/mL) | 25 µM (≈ 8.91 µg/mL) | 12.5 µM (≈ 4.46 µg/mL) | 12.5 µM (≈ 4.46 µg/mL) | 12.5 µM (≈ 4.46 µg/mL) | 25 µM (≈ 8.91 µg/mL) | 19 µM (≈ 6.77 µg/mL) | 9.4 µM (≈ 3.35 µg/mL) | 12.5 µM (≈ 4.46 µg/mL) | 25 µM (≈ 8.91 µg/mL) | MIC [22]: 50 µM (≈ 17.8 µg/mL); CC50 [23]: 24 µM; CC50 ([23]; Homo sapiens, HepG2): 21.2 µM; MIC [24]: 19 µM (≈ 6.77 µg/mL); CC50 [25]: 35.4 µM; CC50 ([25]; Homo sapiens, HepG2): 33.3 µM
O=C(NCCc1ccccc1)c1cc(-c2cccnc2)cnc1NCC1CC1 | 12.9 µM | > 12.5 µM | 1.29 µM | 2.29 µM | 39% | 4% | 5% |  |  |  |  |  |  |  |  |  |  |  |  |  | IC50 [7]: 1.4 µM
O=C(N[C@H](Cc1ccccc1)C(=O)Nc1ccccc1N1CCOCC1)c1cccs1 |  |  |  |  |  |  |  | 1.2 µM (≈ 0.523 µg/mL) | > 50 µM | 3.13 µM (≈ 1.36 µg/mL) | 6.25 µM (≈ 2.72 µg/mL) | 12.5 µM (≈ 5.44 µg/mL) | 2.3 µM (≈ 1 µg/mL) | 0.15 µM (≈ 0.0653 µg/mL) | 3.13 µM (≈ 1.36 µg/mL) | 1.2 µM (≈ 0.523 µg/mL) | 0.15 µM (≈ 0.0653 µg/mL) | 1.56 µM (≈ 0.679 µg/mL) | 2.3 µM (≈ 1 µg/mL) | 1.2 µM (≈ 0.523 µg/mL) | MIC [22]: > 50 µM; CC50 ([23]; Homo sapiens, HepG2): > 50 µM; MIC [24]: 4.7 µM (≈ 2.05 µg/mL); CC50 ([25]; Homo sapiens, HepG2): > 50 µM
O=C1COCc2ccc(Br)cc2N1Cc1ccc(C(F)(F)F)cc1 | 38.4 µM | > 50 µM | 0.96 µM | 3.06 µM | 2% | 2% | 10% |  |  |  |  |  |  |  |  |  |  |  |  |  | IC50 [7]: 2.26 µM
CCN(CC)CCCN1CCN(C(=O)c2cccc(-c3noc(C(F)(F)F)n3)c2)CC1 | >80 µM | > 50 µM | 0.19 µM | 0.85 µM | 4% | 18% | 0% |  |  |  |  |  |  |  |  |  |  |  |  |  | IC50 [7]: 0.31 µM
COc1ccc2nccc(NC(=O)C3CCN(CCc4ccc(Cl)cc4)CC3)c2n1 |  |  |  |  |  |  |  | 0.39 µM (≈ 0.166 µg/mL) | > 50 µM | 0.39 µM (≈ 0.166 µg/mL) | 0.39 µM (≈ 0.166 µg/mL) | 0.78 µM (≈ 0.331 µg/mL) | 0.78 µM (≈ 0.331 µg/mL) | 0.39 µM (≈ 0.166 µg/mL) | 0.6 µM (≈ 0.255 µg/mL) | 0.39 µM (≈ 0.166 µg/mL) | 0.3 µM (≈ 0.127 µg/mL) | 0.39 µM (≈ 0.166 µg/mL) | 0.39 µM (≈ 0.166 µg/mL) | 0.39 µM (≈ 0.166 µg/mL) | MIC [22]: > 50 µM; CC50 ([23]; Homo sapiens, HepG2): > 50 µM; MIC [24]: 0.78 µM (≈ 0.331 µg/mL); CC50 ([25]; Homo sapiens, HepG2): > 50 µM
Cc1ccccc1CN1CCC(O)(c2ccc(Cl)c(C(F)(F)F)c2)CC1 |  |  |  |  |  |  |  | 0.39 µM (≈ 0.15 µg/mL) | 12.5 µM (≈ 4.8 µg/mL) | 0.39 µM (≈ 0.15 µg/mL) | 3.12 µM (≈ 1.2 µg/mL) | 3.12 µM (≈ 1.2 µg/mL) | 0.78 µM (≈ 0.299 µg/mL) | 0.3 µM (≈ 0.115 µg/mL) | 0.78 µM (≈ 0.299 µg/mL) | 0.39 µM (≈ 0.15 µg/mL) | 0.3 µM (≈ 0.115 µg/mL) | 0.6 µM (≈ 0.23 µg/mL) | 0.6 µM (≈ 0.23 µg/mL) | 0.39 µM (≈ 0.15 µg/mL) | MIC [22]: 25 µM (≈ 9.6 µg/mL); CC50 ([23]; Homo sapiens, HepG2): > 50 µM; MIC [24]: 1.2 µM (≈ 0.461 µg/mL); CC50 ([25]; Homo sapiens, HepG2): > 50 µM
O=C(Nc1ccnc(-c2cccnc2)n1)c1cc(C(F)(F)F)cc(C(F)(F)F)c1 | >80 µM | > 50 µM | 1.05 µM | > 2 µM | 0% | 10% | 13% |  |  |  |  |  |  |  |  |  |  |  |  |  | 
